{
  "source": "patent US9551710B2",
  "about": "“Signaling molecule involved in ultraviolet damage to skin” (Drexel University, priority 2010, dated 2017)",
  "key": {"[1]": {"test_system": "MMP-1 expression in human dermal fibroblasts (HDFs)", "test": "MMP-1 expression by western blot of culture supernatants of UV-exposed human dermal fibroblasts pretreated with kinase inhibitors", "type": "cell-based", "conditions": "UVB 60 mJ/cm^2, medium collected 24 hours after exposure", "procedure": "Human dermal fibroblasts AG04058 (Coriell Institute for Medical Research, Camden, N.J.) were cultured and maintained in MEM containing glucose (4.5 mg/ml), glutamine (2 mM), […], and 10% heat-inactivated fetal bovine serum. For cell transfection, Fugene 6 transfection kit (Roche, Germany) was used to deliver Syk cDNA and the Saint-Red siRNA delivery system (Synvolux Therapeutics B.V., The Netherlands) was chosen to transfect Syk siRNA and control siRNA (Santa Cruz Biotechnology Inc., Santa Cruz, Calif.) into the cells. Cells were exposed to UVB (312 nm) (60 mJ/cm^2) by a Stratalinker UV Crosslinker (Stratagene, La Jolla, Calif.). Cell supernatants were collected 24 hrs after UV exposure, and prepared for MMP-1 expression assay.\nTwenty-four hours after UV exposure, the culture media of HDFs were collected for MMP-1 assay. Based on OD280 measurement, equal amounts of proteins from the supernatants were mixed with 2× sample buffer, boiled for 5 min and chilled on ice. Samples were then subjected to […] and electrophoretically transferred to nitrocellulose membrane. The membrane was blocked with 5% dry milk in washing buffer. MMP-1 was detected with anti-MMP-1 antibody, and the results were visualized by an ECL detection system. For Syk protein and MAPK activation western blot assays, cell pellets were lysed in 1× Triton X-100 lysis buffer (1% Triton X-100, 5 mmol/L Hepes—KOH, pH 7.4) in the presence of protease and phosphatase inhibitors containing 5 mM EGTA, 3 mM Na orthovanadate, 2 mM phenylmethylsulfonyl fluoride, and […] aprotinin and leupeptin (Sigma Chemical Co., St. Louis, Mo.). Following centrifugation at 12,000 rpm for 30 min at 4° C., the cleared lysates were subjected to the same procedure as that followed for MMP-1 assay. Syk protein and MAPK activation were detected with anti-Syk antibody and anti-phospho-MAPK antibodies, respectively, by western blot. For the activation of Syk kinase assay, briefly, cell lysates were precleared by incubation with protein G plus agarose (Santa Cruz Biotechnology, Inc.), and then incubated overnight at 4° C. with anti-Syk antibody. Immune complexes would bind to protein G plus agarose in the lysis buffer. The agarose beads were washed three times with lysis buffer and the adsorbed proteins were eluted into the sample buffer. Tyrosine phosphorylation of Syk kinase (Syk activation) was determined with anti-phosphotyrosine antibody by western blot.\nHuman fibroblast cells (AG04058) were seeded into 24-well tissue culture dishes with MEM medium one day before the assay. Specific inhibitors for each kinase were added into each different well as indicated (FIG. 4). […]\nThe dose-response of piceatannol inhibition was assessed in HDFs exposed to UVB (60 mJ/cm^2) (FIG. 9B)."}, "[2]": {"test_system": "UV induced apoptosis in mouse skin", "conditions": "from cited literature; cited from earlier work"}},
  "data": [
    {"smiles": "Oc1cc(O)cc(/C=C/c2ccc(O)c(O)c2)c1", "note": "[piceatannol]", "values": [
      {"measurement": "inhibition of MMP-1 expression (western blot, image-density analysis)", "setting": "[1]; piceatannol 1 μg/ml", "result": "no inhibition"},
      {"measurement": "inhibition of MMP-1 expression (western blot, image-density analysis)", "setting": "[1]; piceatannol 5 μg/ml", "result": "no inhibition"},
      {"measurement": "inhibition of MMP-1 expression (western blot, image-density analysis)", "setting": "[1]; piceatannol 10 μg/ml", "result": 20, "unit": "%"},
      {"measurement": "inhibition of MMP-1 expression (western blot, image-density analysis)", "setting": "[1]; piceatannol 25 μg/ml", "result": 63, "unit": "%"}
    ]},
    {"smiles": "Oc1ccc(-c2nc(-c3ccncc3)c(-c3ccc(F)cc3)[nH]2)cc1", "note": "[SB202190]", "values": [
      {"measurement": "UV induced apoptosis in mouse skin, in words", "setting": "[2]", "result": "blocked"}
    ]}
  ]
}
